This is an account of results in US20160032005A1, “METHODS AND PHARMACEUTICALS COMPOSITIONS FOR TREATING BREAST CANCERS” (INSERM (Institut National de la Sante et de la Recherche …, priority 2014, published 2016).

Test [1] has as its system SUM149 cells. Briefly: Cell migration assay (Boyden chamber, serum as chemo-attractant). The class given is cell-based. As to conditions: compared to Venus ctrl or shLuc.
Test [2] deals with SUM149 cells. Nature of the test: Long-term cell proliferation and anchorage-independent soft agar assays. It is filed as cell-based. As to conditions: compared to Venus ctrl or shLuc. From the text:
In order to challenge the role of Vangl2 in tumor growth, we first designed different short hairpin RNA (shRNA) to downregulate Vangl2 protein expression in SUM149, a basal breast cancer cell line, which were targeted to different sequences of the VANGL2 gene. Vangl2 expression is decreased by approximately 90% with shVangl2 (clone 3.6.9 and 3.2.12) compared shLuc controls. […] Behaviour of shLuc-SUM149 and shVangl2-SUM149 cells was next compared in long-term cell proliferation and anchorage-independent experiments using soft agar assays. Cell proliferation and in vitro tumorigenicity of SUM149 cells were decreased when expression of Vangl2 was decreased using shVangl2 clone 3.6.9. This effect was confirmed using a second shVangl2 clone 3.2.12. The tumorigenic potential of Vangl2 was next assessed in vivo by performing subcutaneous xenografts in NOG mice. Orthotopic injections of shLuc-SUM149 and shVangl2-SUM149 cells were performed and tumour growth was periodically measured.
As JNK signaling is usually activated following PCP activation, we next investigated this pathway in SUM149 cells. As previously shown, down-regulation of Vangl2 leads to a decrease in JNK signaling as shown using a time-dependent FCS stimulation of SUM149 transfected with shVangl2 compared to shLuc. No change in phosphorylation of GSK3 was evidenced in the absence of Vangl2. […]

The test system of a further test is p62. Nature of the test: p62 immunolocalization and protein level under autophagy modulators. Conditions: breast cancer and Hela cells. It is filed as cell-based. The source says:
(§1) We next addressed the potential colocalization of Vangl2 and p62 in SUM149 cells by immunofluorescence and confocal analysis. In these cells, Vangl2 and p62 have a punctate cytoplasmic pattern and colocalization between the two proteins was seen puncta in the perinuclear region. Specificity of the Vangl2 signal is attested by lack of staining in cells treated with shVangl2. p62 is present in autophagosomes where it accumulates ubiquitinylated proteins bound to its UBA domain for autophagic degradation. Autophagy is active when the fusion between autophagosomes and lysosomes occur leading to the formation of autophagolysosomes endowed with degradative properties. The fusion process, and therefore autophagy, can be inhibited by Bafilomycin A1, an inhibitor of the vacuolar ATPase that blocks the fusion process by blocking the membrane-bound lysosomal vacuolar ATPase (V-ATPase) to prevent the lysosomal lumen acidification responsible for cathepsin activation. Alternatively, autophagy can be induced by rapamycin, an inhibitor of mTOR [38]. […] Decrease of p62 protein level can also be monitored by western blot. Vangl2 protein levels remained unmodified by rapamycin treatment while another prominent feature of autophagy, i.e. degradation of p62 was readily seen. […]

The next test relates to Vangl2. Nature of the test: Vangl2 protein level (western blot) and cellular distribution under autophagy modulators. It is filed as cell-based.
Excerpt: as §1
A general note: In western blotting, separated proteins are transferred to a membrane and probed.

The target of test [3] is T1, Vangl2-p62 interaction (Homo sapiens, UniProt Q9ULK5).
T1 construct: endogenous in cells; host or cells: SUM149 cells / cell extracts
T1 sequence (Q9ULK5 1-521): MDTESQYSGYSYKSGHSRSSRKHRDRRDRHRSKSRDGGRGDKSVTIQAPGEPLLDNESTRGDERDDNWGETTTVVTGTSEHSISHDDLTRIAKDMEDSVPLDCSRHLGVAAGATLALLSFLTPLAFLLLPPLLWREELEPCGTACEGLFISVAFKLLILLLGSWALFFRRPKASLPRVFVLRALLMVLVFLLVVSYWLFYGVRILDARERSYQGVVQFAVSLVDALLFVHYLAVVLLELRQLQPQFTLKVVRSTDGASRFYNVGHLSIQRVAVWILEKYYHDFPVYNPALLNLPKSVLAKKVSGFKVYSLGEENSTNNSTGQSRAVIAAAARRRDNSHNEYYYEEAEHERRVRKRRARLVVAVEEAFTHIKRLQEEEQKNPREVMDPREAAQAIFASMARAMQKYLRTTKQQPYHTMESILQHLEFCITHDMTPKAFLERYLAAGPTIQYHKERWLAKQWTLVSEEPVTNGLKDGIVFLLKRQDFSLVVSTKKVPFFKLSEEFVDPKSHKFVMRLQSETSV
Briefly: Competition of endogenous Vangl2-p62 interaction recovered by immunoprecipitation, peptide incubated in SUM149 cell extracts. The class given is binding. Conditions: SUM149 cells / cell extracts.

For test [4], the target named is T1, Vangl2-p62 interaction. Nature of the test: Co-immunoprecipitation in SUM149 cells expressing the construct. Conditions: construct expressed in SUM149 cells, compared to GFP alone. The class given is cell-based. From the text:
(§2) As JNK signaling is usually activated following PCP activation, we next investigated this pathway in SUM149 cells. As previously shown, down-regulation of Vangl2 leads to a decrease in JNK signaling as shown using a time-dependent FCS stimulation of SUM149 transfected with shVangl2 compared to shLuc. No change in phosphorylation of GSK3 was evidenced in the absence of Vangl2. […] Knock-down of p62 expression in SUM149 cells phenocopied lack of Vangl2 expression. […] Next, we fused the p62 (346-388) sequence to GFP and expressed the construct in SUM149 cells. […] Indeed, this construct was able to specifically coimmunoprecipitate with Vangl2 and furthermore compete with the endogenous Vangl2-p62 interaction as shown by the decreased amount of endogenous p62 associated with Vangl2. In order to assess the contribution of the Vangl2-p62 interaction in JNK signaling, we utilized the dominant negative region of p62 and expressed this as a GFP-tagged protein.

Another test relates to JNK signaling. Briefly: JNK signaling in SUM149 cells. The class given is cell-based. Conditions: compared to GFP alone or shLuc.
Excerpt: as §2

As to “Venus-p62 (346-388): Venus-tagged p62 (346-388) expressed by lentiviral infection”, the cell migration entry in the test on SUM149 cells [1] is “decrease”. Moreover, the “colonies in soft agar / in vitro tumorigenicity” value with SUM149 cells [2] was “fewer colonies”.

For the compound `CO/C1=C\C(C)=C\[C@@H](C)[C@@H](O)[C@@H](C)C/C(C)=C/C=C/[C@H](OC)[C@@H]([C@@H](C)[C@@H](O)[C@H](C)[C@@]2(O)C[C@@H](O)[C@H](C)[C@@H](C(C)C)O2)OC1=O` [Bafilomycin A1], in the test with p62, the p62 immunolocalization result is “accumulates”. For the same compound, the Vangl2 protein levels result in the test on Vangl2 is recorded as “not modified”.

In the case of “polypeptide (346-371): polypeptide reduced in size, residues 346-371 of p62 (SEQ ID NO:2) (VDPSTGELQSLQMPESEGPSSLDPSQ; listed as Homo sapiens)”, in the test with Vangl2-p62 interaction [3], the “disruption of the endogenous Vangl2-p62 interaction” value was “able to inhibit”.

For the compound “GFP-p62 (346-388): p62 (346-388) sequence fused to GFP, expressed in SUM149 cells”, the “effect on endogenous Vangl2-p62 interaction in co-immunoprecipitation” value with Vangl2-p62 interaction [4] was “dominant-negative effect”. Besides, the JNK signalling entry in the test with JNK signaling was “decrease”.
